Like-named read-outs stand apart in the source and are kept apart here.
Legend:
[1] = biological target: T1, Mer(h) (Homo sapiens, UniProt Q12866); assay: biochemical; design: Eurofins KinaseProfiler full panel at Km ATP, residual kinase activity (%) relative to DMSO
T1 construct: gene MERTK
T1 sequence (Q12866 1-999): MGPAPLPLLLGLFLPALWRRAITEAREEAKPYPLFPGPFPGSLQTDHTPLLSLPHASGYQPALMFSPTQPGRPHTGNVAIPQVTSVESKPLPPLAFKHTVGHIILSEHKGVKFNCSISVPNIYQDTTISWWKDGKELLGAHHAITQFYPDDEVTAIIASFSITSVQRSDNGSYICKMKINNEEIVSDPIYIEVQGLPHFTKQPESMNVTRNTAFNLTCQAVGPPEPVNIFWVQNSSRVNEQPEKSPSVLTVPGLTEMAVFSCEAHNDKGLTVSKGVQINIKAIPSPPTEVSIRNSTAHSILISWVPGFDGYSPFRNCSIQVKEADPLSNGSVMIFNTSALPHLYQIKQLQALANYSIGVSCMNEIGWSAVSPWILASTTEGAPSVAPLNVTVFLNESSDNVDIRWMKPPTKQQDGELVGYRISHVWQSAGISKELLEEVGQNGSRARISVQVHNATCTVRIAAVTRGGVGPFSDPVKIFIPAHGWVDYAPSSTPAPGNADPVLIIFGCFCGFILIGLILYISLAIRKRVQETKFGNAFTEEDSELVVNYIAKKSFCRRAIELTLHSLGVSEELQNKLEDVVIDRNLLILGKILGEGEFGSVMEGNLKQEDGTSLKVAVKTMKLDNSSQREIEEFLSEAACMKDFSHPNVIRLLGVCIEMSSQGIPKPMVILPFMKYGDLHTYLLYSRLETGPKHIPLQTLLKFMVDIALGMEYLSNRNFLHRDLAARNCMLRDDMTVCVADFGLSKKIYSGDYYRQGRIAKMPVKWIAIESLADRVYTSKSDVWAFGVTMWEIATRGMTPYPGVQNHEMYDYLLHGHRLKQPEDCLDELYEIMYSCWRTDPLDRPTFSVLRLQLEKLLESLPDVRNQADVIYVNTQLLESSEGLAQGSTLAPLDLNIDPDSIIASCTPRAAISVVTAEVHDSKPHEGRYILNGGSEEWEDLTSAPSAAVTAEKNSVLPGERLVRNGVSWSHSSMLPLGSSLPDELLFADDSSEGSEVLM
Procedure, shortened: (§1)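 Radiometric kinase activity assays were run with ATP at Km and compounds at 10 µM, and remaining activity (%) was reported. A separate competitive binding screen measured DNA-tagged kinase displaced from immobilized active-site ligands by qPCR, giving percent kinase still bound at 10 µM compound in DMSO.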

[2] = biological target: T2, PDK1(h) (Homo sapiens, UniProt O15530); assay: biochemical; design: Eurofins KinaseProfiler full panel at Km ATP, residual kinase activity (%) relative to DMSO
T2 construct: gene PDPK1
T2 sequence (O15530 1-556): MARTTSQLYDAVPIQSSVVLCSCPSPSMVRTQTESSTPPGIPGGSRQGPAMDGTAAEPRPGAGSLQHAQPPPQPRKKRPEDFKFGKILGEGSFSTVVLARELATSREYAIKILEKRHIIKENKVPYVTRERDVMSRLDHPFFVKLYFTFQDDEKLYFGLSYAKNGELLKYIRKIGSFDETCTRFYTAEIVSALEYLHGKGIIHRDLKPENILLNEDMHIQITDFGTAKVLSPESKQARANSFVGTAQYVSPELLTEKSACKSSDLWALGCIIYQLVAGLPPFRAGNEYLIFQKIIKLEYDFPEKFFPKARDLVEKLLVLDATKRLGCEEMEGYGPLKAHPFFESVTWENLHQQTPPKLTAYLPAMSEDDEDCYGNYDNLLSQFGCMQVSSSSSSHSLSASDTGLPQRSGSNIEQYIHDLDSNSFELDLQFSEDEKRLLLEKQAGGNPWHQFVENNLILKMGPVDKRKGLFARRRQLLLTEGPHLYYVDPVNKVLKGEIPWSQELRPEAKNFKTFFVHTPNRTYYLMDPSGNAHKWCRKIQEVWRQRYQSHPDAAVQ
Procedure, shortened: as §1

[3] = read-out: Residual activity (%) 5ay
[4] = read-out: Residual activity (%) Spautin-1 5aa
[5] = read-out: Residual activity (%) 5at
[6] = read-out: Residual activity (%) 5as

COc1ccc2ncnc(Nc3cccc(F)c3)c2c1 [5ay, N-(3-Fluorophenyl)-6-Methoxy-4-Quinazolinamine]
remaining activity at 10 µM [1, 3]: 68%
remaining activity at 10 µM [2, 3]: 90%

Fc1ccc(CNc2ncnc3ccc(F)cc23)cc1 [5aa, 6-Fluoro-N-(4-fluorobenzyl)-4-Quinazolinamine]
remaining activity at 10 µM [1, 4]: 83%
remaining activity at 10 µM [2, 4]: 102%

Fc1ccc2ncnc(NCCc3ccc(Cl)cc3)c2c1 [5at, N-[2-(4-Chlorophenyl)Ethyl]-6-Fluoro-4-Quinazolinamine]
remaining activity at 10 µM [1, 5]: 89%
remaining activity at 10 µM [2, 5]: 84%

Fc1ccc(CCNc2ncnc3ccc(F)cc23)cc1 [5as, 6-Fluoro-N-[2-(4-Fluorophenyl)Ethyl]-4-Quinazolinamine]
remaining activity at 10 µM [1, 6]: 83%
remaining activity at 10 µM [2, 6]: 88%
